Measurements as given in patent US20230398130A1, “METHODS AND COMPOSITIONS FOR DIFFERENTIATING STEM CELLS” (Massachusetts Institute of Technology, priority 2020, published 2023).

Key:
ISC-enriched organoids [1] = experiment: Primary screen, 384-well 2.5-D organoid differentiation (ENR+CD, 6 days): basal lysozyme secretion (LYZ.NS); assay type: cell-based, murine; conditions: for Dose.FC.LYZ.NS / Z.LYZ.NS: primary screen; for Dose.FC.LYZ.NS: ENR+CD 6 days, FC vs plate median; for Z.LYZ.NS: standard z score of FC
Description: (§1) High-throughput screening.

ISC-enriched organoids [2] = experiment: Primary screen, 384-well 2.5-D organoid differentiation (ENR+CD, 6 days): carbachol-induced lysozyme secretion (LYZ.S); assay type: cell-based, murine; conditions: for Dose.FC.LYZ.S: primary screen, ENR+CD 6 days, FC vs plate median
Description: as §1

ISC-enriched organoids [3] = experiment: Primary screen, 384-well 2.5-D organoid differentiation (ENR+CD, 6 days, Target Selective Inhibitor Library, vs whole-plate median): ATP (CellTiter-Glo 3D, CTG); conditions: for Dose.FC.CTG / Z.CTG: primary screen; for Dose.FC.CTG: ENR+CD 6 days, FC vs plate median; for Z.CTG: standard z score of FC
[4] = dose 0.08 uM (1st of 4 lines per treatment; dose not printed in this part)
[5] = dose 0.40 uM (2nd of 4 lines per treatment; dose not printed in this part)
[6] = dose 2.00 uM (3rd of 4 lines per treatment; dose not printed in this part)
[7] = dose 10.00 uM (4th of 4 lines per treatment; dose not printed in this part)

Row | SMILES | SSMD.LYZ.NS_Rep (strictly standardized mean difference) (ISC-enriched organoids [1]; [4]) | SSMD.LYZ.NS_Rep (strictly standardized mean difference) (ISC-enriched organoids [1]; [5]) | SSMD.LYZ.NS_Rep (strictly standardized mean difference) (ISC-enriched organoids [1]; [6]) | SSMD.LYZ.NS_Rep (strictly standardized mean difference) (ISC-enriched organoids [1]; [7]) | Dose.FC.LYZ.NS (ISC-enriched organoids [1]; dose 0.08 uM) [log 2 fold change] | Z.LYZ.NS (ISC-enriched organoids [1]; dose 0.08 uM) | Dose.FC.LYZ.NS (ISC-enriched organoids [1]; dose 0.40 uM) [log 2 fold change] | Z.LYZ.NS (ISC-enriched organoids [1]; dose 0.40 uM) | Dose.FC.LYZ.NS (ISC-enriched organoids [1]; dose 2.00 uM) [log 2 fold change] | Z.LYZ.NS (ISC-enriched organoids [1]; dose 2.00 uM) | Dose.FC.LYZ.NS (ISC-enriched organoids [1]; dose 10.00 uM) [log 2 fold change] | Z.LYZ.NS (ISC-enriched organoids [1]; dose 10.00 uM) | SSMD.LYZ.S_Rep (strictly standardized mean difference) (ISC-enriched organoids [2]; [4]) | Z.LYZ.S (standard z score) (ISC-enriched organoids [2]; [4]) | SSMD.LYZ.S_Rep (strictly standardized mean difference) (ISC-enriched organoids [2]; [5]) | Z.LYZ.S (standard z score) (ISC-enriched organoids [2]; [5]) | SSMD.LYZ.S_Rep (strictly standardized mean difference) (ISC-enriched organoids [2]; [6]) | Z.LYZ.S (standard z score) (ISC-enriched organoids [2]; [6]) | SSMD.LYZ.S_Rep (strictly standardized mean difference) (ISC-enriched organoids [2]; [7]) | Z.LYZ.S (standard z score) (ISC-enriched organoids [2]; [7]) | also measured
1 | CC1(C)CCC(CN2CCN(c3ccc(C(=O)NS(=O)(=O)c4ccc(NCC5CCOCC5)c([N+](=O)[O-])c4)c(Oc4cnc5[nH]ccc5c4)c3)CC2)=C(c2ccc(Cl)cc2)C1 [ABT-199 (GDC-0199)] | −0.009 | −0.192 | −0.116 | −0.810 | −0.002 | −0.013 | −0.029 | −0.251 | −0.016 | −0.136 | −0.169 | −1.471 | −0.260 | −0.285 | 0.443 | 0.494 | −0.368 | −0.404 | −1.131 | −1.890 | Dose.FC.LYZ.S (ISC-enriched organoids [2]; dose 0.08 uM): −0.044 log 2 fold change; Dose.FC.LYZ.S (ISC-enriched organoids [2]; dose 0.40 uM): 0.076 log 2 fold change; Dose.FC.LYZ.S (ISC-enriched organoids [2]; dose 2.00 uM): −0.063 log 2 fold change; Dose.FC.LYZ.S (ISC-enriched organoids [2]; dose 10.00 uM): −0.292 log 2 fold change; SSMD.CTG_Rep (strictly standardized mean difference) (ISC-enriched organoids [3]; [4]): 0.051; SSMD.CTG_Rep (strictly standardized mean difference) (ISC-enriched organoids [3]; [5]): 0.111; SSMD.CTG_Rep (strictly standardized mean difference) (ISC-enriched organoids [3]; [6]): −0.377; SSMD.CTG_Rep (strictly standardized mean difference) (ISC-enriched organoids [3]; [7]): −1.402; Dose.FC.CTG (ISC-enriched organoids [3]; dose 0.08 uM): 0.019 log 2 fold change; Z.CTG (ISC-enriched organoids [3]; dose 0.08 uM): 0.045; Dose.FC.CTG (ISC-enriched organoids [3]; dose 0.40 uM): 0.038 log 2 fold change; Z.CTG (ISC-enriched organoids [3]; dose 0.40 uM): 0.090; Dose.FC.CTG (ISC-enriched organoids [3]; dose 2.00 uM): −0.278 log 2 fold change; Z.CTG (ISC-enriched organoids [3]; dose 2.00 uM): −0.665; Dose.FC.CTG (ISC-enriched organoids [3]; dose 10.00 uM): −0.519 log 2 fold change; Z.CTG (ISC-enriched organoids [3]; dose 10.00 uM): −1.240
2 | O=C(O)c1ccc(N2C(=O)/C(=C\c3ccc(-c4ccc([N+](=O)[O-])cc4)o3)C=C2c2ccccc2)cc1 [4E1RCat] | 0.883 | −0.121 | 0.437 | 0.053 | 0.100 | 0.874 | −0.018 | −0.154 | 0.151 | 1.316 | 0.007 | 0.062 | 0.712 | 0.690 | 0.185 | 0.247 | 0.311 | 0.316 | 0.321 | 0.530 | Dose.FC.LYZ.S (ISC-enriched organoids [2]; dose 0.08 uM): 0.107 log 2 fold change; Dose.FC.LYZ.S (ISC-enriched organoids [2]; dose 0.40 uM): 0.038 log 2 fold change; Dose.FC.LYZ.S (ISC-enriched organoids [2]; dose 2.00 uM): 0.049 log 2 fold change; Dose.FC.LYZ.S (ISC-enriched organoids [2]; dose 10.00 uM): 0.082 log 2 fold change; SSMD.CTG_Rep (strictly standardized mean difference) (ISC-enriched organoids [3]; [4]): 0.790; SSMD.CTG_Rep (strictly standardized mean difference) (ISC-enriched organoids [3]; [5]): 0.559; SSMD.CTG_Rep (strictly standardized mean difference) (ISC-enriched organoids [3]; [6]): 0.022; SSMD.CTG_Rep (strictly standardized mean difference) (ISC-enriched organoids [3]; [7]): −0.026; Dose.FC.CTG (ISC-enriched organoids [3]; dose 0.08 uM): 0.246 log 2 fold change; Z.CTG (ISC-enriched organoids [3]; dose 0.08 uM): 0.587; Dose.FC.CTG (ISC-enriched organoids [3]; dose 0.40 uM): 0.362 log 2 fold change; Z.CTG (ISC-enriched organoids [3]; dose 0.40 uM): 0.864; Dose.FC.CTG (ISC-enriched organoids [3]; dose 2.00 uM): 0.006 log 2 fold change; Z.CTG (ISC-enriched organoids [3]; dose 2.00 uM): 0.015; Dose.FC.CTG (ISC-enriched organoids [3]; dose 10.00 uM): −0.011 log 2 fold change; Z.CTG (ISC-enriched organoids [3]; dose 10.00 uM): −0.026
3 | C=CCNC1=C2C[C@@H](C)C[C@H](OC)[C@H](O)[C@@H](C)/C=C(\C)[C@H](OC(N)=O)[C@@H](OC)/C=C\C=C(/C)C(=O)NC(=CC1=O)C2=O [17-AAG (Tanespimycin)] | −1.180 | −1.186 | −1.053 | −1.183 | −0.193 | −1.682 | −0.205 | −1.786 | −0.142 | −1.239 | −0.187 | −1.631 | −1.387 | −1.826 | −1.428 | −2.199 | −1.462 | −2.219 | −1.655 | −1.975 | Dose.FC.LYZ.S (ISC-enriched organoids [2]; dose 0.08 uM): −0.282 log 2 fold change; Dose.FC.LYZ.S (ISC-enriched organoids [2]; dose 0.40 uM): −0.340 log 2 fold change; Dose.FC.LYZ.S (ISC-enriched organoids [2]; dose 2.00 uM): −0.343 log 2 fold change; Dose.FC.LYZ.S (ISC-enriched organoids [2]; dose 10.00 uM): −0.306 log 2 fold change; SSMD.CTG_Rep (strictly standardized mean difference) (ISC-enriched organoids [3]; [4]): −0.926; SSMD.CTG_Rep (strictly standardized mean difference) (ISC-enriched organoids [3]; [5]): −1.023; SSMD.CTG_Rep (strictly standardized mean difference) (ISC-enriched organoids [3]; [6]): −1.783; SSMD.CTG_Rep (strictly standardized mean difference) (ISC-enriched organoids [3]; [7]): −1.348; Dose.FC.CTG (ISC-enriched organoids [3]; dose 0.08 uM): −1.012 log 2 fold change; Z.CTG (ISC-enriched organoids [3]; dose 0.08 uM): −2.418; Dose.FC.CTG (ISC-enriched organoids [3]; dose 0.40 uM): −1.262 log 2 fold change; Z.CTG (ISC-enriched organoids [3]; dose 0.40 uM): −3.015; Dose.FC.CTG (ISC-enriched organoids [3]; dose 2.00 uM): −1.459 log 2 fold change; Z.CTG (ISC-enriched organoids [3]; dose 2.00 uM): −3.486; Dose.FC.CTG (ISC-enriched organoids [3]; dose 10.00 uM): −1.446 log 2 fold change; Z.CTG (ISC-enriched organoids [3]; dose 10.00 uM): −3.454
